Source: patent US9572786B2, “Use of capsiate or dihydrocapsidate” (Catholic University Industry Academy Cooperation Foundation, priority 2007, dated 2017)

System: Sprague dawley (SD) rats
Experiment: Retinal vascular permeability in streptozotocin induced diabetic retinopathy
Format: in vivo, rat
Conditions: intravitreally injected 1-week after streptozotocin, observed at 3 weeks with dextran FITC
Protocol: Diabetes are induced by performing intraperitoneal injection of 60 mg/kg of streptozotocin (Sigma, St Louis, Mo., USA) into 8-week-old male Sprague dawley (SD) rats (250 g). 3 days later, serum glucose level was measured and rats having serum glucose level of […] and more are selected and used in experiments. Capsiate or capsaicin was intravitreally injected 1-week after the injection of streptozotocin, respectively. 3 weeks after the injection of streptozotocin, 0.5 ml of dextran FITC (25 mg/ml, MW 40K, Sigma, St Louis, Mo., USA) was injected through tail vein of tested rats to imaging retinal vascular pattern. Retinal tissues of the rats are isolated and observed by fluorescent microscopy (Olympus, Tokyo, Japan). The increase of retinal vascular permeability is observed in nonproliferative diabetic retinopathy, proliferative diabetic retinopathy and diabetic macular edema and result from cracks in vascular vessel due to breakdown of blood-retinal barrier (BRB).

COc1cc(CNC(=O)CCCC/C=C/C(C)C)ccc1O [Capsaicin, capsaicin, reference compound]
increment of retinal vascular permeability: does not effect
